# Results taken from patent US7053175B1, “Synthetic peptides useful in biological assays for detecting infections caused by group O HIV-1 viruses” (Bio-Rad Pasteur, priority 1997, dated 2006).
# No end group written: not given here.
# Columns and labels:
# [1] = system: serum samples from patients infected with group O HIV-1 retroviruses; experiment: Immunoenzymatic test: Test No. 2 (immunoreactivity with diluted sera); assay type: binding, human; conditions: solid phase peptide 2 μg/ml; for Number of samples: sera of Table V; for ABSORBANCE (OD): cyclized
# Description: The serum samples from patients infected with group O HIV-1 retroviruses were obtained by the Yaounde Pasteur Centre in Cameroon and were serotyped group O according to the serological algorithm described in AIDS (1977), 11, pp. 445-453. A genotyped sample (Maryland) is obtained from the United States. These samples were previously diluted in negative human serum at the dilutions given in Table V, in order to have a sufficient volume for the different immunoreactivity tests.
# The synthetic peptides used were dissolved in water at a concentration of 1 mg/ml (stock solution). For the solid phase sensitization step (“coating”), the procedure was carried out as described for Example 2.
# The serum samples were diluted 1/5 with a skimmed milk solution (citrate buffer supplemented with 0.01% of phenol red, 0.25% of chloroform and 0.25% of Kathon®), deposited in the wells of plates and incubated for 30 min at 40° C.
# After washing with a Tris-NaCl buffer solution pH 7.4 containing 0.1% of Tween® 20 and 0.001% of sodium merthiolate, 100 μl of a solution of conjugate consisting of horseradish peroxidase-labelled anti-human IgG and IgM goat antibodies, containing as preservative 0.01% of sodium merthiolate, in solution in a citrate buffer solution supplemented with 30% glycerol and 25% normal foetal calf serum, were added to each well of the plates and then they were incubated for 30 min at 40° C.
# After washing with a Tris-NaCl buffer solution pH 7.4 containing 0.1% of Tween® 20 and 0.001% of sodium merthiolate, the colour was developed as described in Example 2.
# The relative absorbance (OD) (A490-A620) read in each well is proportional to the immunoreactivity of each peptide. It indicates the ability of each peptide to react with the biological sample with which the test is carried out.
# The reactivity of the peptides of the invention, peptides No. 10 (14B), No. 11 (18B), No. 12 (19B), No. 14 (21B), No. 15 (22B), No. 16 (23B) all in cyclized form, was compared with that of three homologous synthetic peptides having, as sequence, a portion of the natural sequence of the envelope (env) of a group O HIV-1 retrovirus. These peptides are two peptides derived from the VAU isolate—the peptide VAU 22 AA and the peptide VAU 35 AA—and the peptide MVP 5180 (designated “MVP 5180” in Table V). The peptides VAU 22 AA and VAU 35 AA (whose structure is indicated in Example 2) and the peptide MVP 5180 comprise an immunodominant epitope of gp41.
# All these peptides were used in cyclized form. The sequence of the MVP 5180 peptide is the following:
# For each peptide tested, the samples were arranged into four classes (a, b, c and d) corresponding to various levels of relative absorbance read at the wavelengths A492-A620: • for a: OD<0.100, • for b: 0.100<OD<0.500, • for c: 0.500<OD<1.000, • for d: OD>1.000, thus making it possible to evaluate the degree of immunoreactivity of the peptides.
# [2] = system: sera from patients infected with group O HIV-1 retroviruses; experiment: Immunoenzymatic test of compositions containing peptides (Example 4); assay type: binding, human; set-up: key: >: signal greater than the reading capacity of the spectrophotometer; conditions: single peptide 2 μg/ml or composition 1 μg/ml + 1 μg/ml
# Method: For this test, the procedure was carried out according to the protocol described in Example 2 and the same sera were used. The microplates used were sensitized either with peptide No. 1 (2B) cyclized, or with peptide No. 3 (4B) cyclized, or with a composition containing these two peptides (1:1 w/w). Into each well, there were deposited either 100 μl of a solution containing 2 μg/ml of peptide No. 1 (2B), or 100 μl of a solution containing 2 μg/ml of peptide No. 3 (4B), or 100 μl of a solution containing 1 μg/ml of peptide No. 1 (2B) and 1 μg/ml of peptide No. 3 (4B).
sequence,measurement,setting,value
"LLNLWGCKNRAICYTSVKWNKT (cysteine pairing not given here) [VAU 22 AA, reference compound]",Number of samples,[1]; CLASS A (a: OD<0.100),7
same,Number of samples,[1]; CLASS B (b: 0.100<OD<0.500),7
same,Number of samples,[1]; CLASS C (c: 0.500<OD<1.000),0
same,Number of samples,[1]; CLASS D (d: OD>1.000),0
same,ABSORBANCE (OD),[1]; serum 258 OUDI at 1/100,0.100
same,ABSORBANCE (OD),[1]; serum 625 at 1/50,0.165
same,ABSORBANCE (OD),[1]; serum 3600 at 1/100,0.058
same,ABSORBANCE (OD),[1]; serum 3613 at ¼00,0.396
same,ABSORBANCE (OD),[1]; serum 3653 at 1/10,0.310
same,ABSORBANCE (OD),[1]; serum 4280 at 1/50,0.021
same,ABSORBANCE (OD),[1]; serum 6111 at 1/100,0.180
same,ABSORBANCE (OD),[1]; serum DJOU at 1/100,0.042
same,ABSORBANCE (OD),[1]; serum DO15 at 1/100,0.075
same,ABSORBANCE (OD),[1]; serum MBASSI at 1/100,0.257
same,ABSORBANCE (OD),[1]; serum Maryland at ¼00,0.168
same,ABSORBANCE (OD),[1]; serum NGO at 1/50,0.040
same,ABSORBANCE (OD),[1]; serum NJEM at 1/100,0.024
same,ABSORBANCE (OD),[1]; serum WANG at 1/50,0.041
LLSLWGCRGKAVCYTSVQWNET [PEPTIDE No. 1 (2B)],ABSORBANCE,[2]; serum 1062,>
same,ABSORBANCE,[2]; serum 1702,1.016
same,ABSORBANCE,[2]; serum 1754,>
same,ABSORBANCE,[2]; serum 2294,0.447
same,ABSORBANCE,[2]; serum 2352,0.205
same,ABSORBANCE,[2]; serum 2551,>
same,ABSORBANCE,[2]; serum 2700,>
same,ABSORBANCE,[2]; serum 3016,0.243
same,ABSORBANCE,[2]; serum 3136 (listed twice),0.302
same,ABSORBANCE,[2]; serum 3235,>
same,ABSORBANCE,[2]; serum 3302,0.386
same,ABSORBANCE,[2]; serum 3482,1.473
same,ABSORBANCE,[2]; serum 3600,2.743
same,ABSORBANCE,[2]; serum 3627,2.910
same,ABSORBANCE,[2]; serum 3771,0.544
same,ABSORBANCE,[2]; serum 3891,2.780
same,ABSORBANCE,[2]; serum 3935,0.307
same,ABSORBANCE,[2]; serum 4477*,>
same,ABSORBANCE,[2]; serum 4489,>
same,ABSORBANCE,[2]; serum 5149,>
same,ABSORBANCE,[2]; serum 5270,>
same,ABSORBANCE,[2]; serum 5931,>
same,ABSORBANCE,[2]; serum 6165,2.714
same,ABSORBANCE,[2]; serum 6198,>
same,ABSORBANCE,[2]; serum 6627,>
same,ABSORBANCE,[2]; serum 6697,>
same,ABSORBANCE,[2]; serum 6891,0.062
same,ABSORBANCE,[2]; serum 6976,>
same,ABSORBANCE,[2]; serum 6998,>
same,ABSORBANCE,[2]; serum 7258,2.477
same,ABSORBANCE,[2]; serum 7443,>
LLSSWGCKGRLVCYTSVQWNET [PEPTIDE No. 3 (4B)],ABSORBANCE,[2]; serum 1062,>
same,ABSORBANCE,[2]; serum 1702,>
same,ABSORBANCE,[2]; serum 1754,>
same,ABSORBANCE,[2]; serum 2294,>
same,ABSORBANCE,[2]; serum 2352,>
same,ABSORBANCE,[2]; serum 2551,>
same,ABSORBANCE,[2]; serum 2700,>
same,ABSORBANCE,[2]; serum 3016,>
same,ABSORBANCE,[2]; serum 3136 (listed twice),>
same,ABSORBANCE,[2]; serum 3235,>
same,ABSORBANCE,[2]; serum 3302,>
same,ABSORBANCE,[2]; serum 3482,>
same,ABSORBANCE,[2]; serum 3600,>
same,ABSORBANCE,[2]; serum 3627,>
same,ABSORBANCE,[2]; serum 3771,>
same,ABSORBANCE,[2]; serum 3891,>
same,ABSORBANCE,[2]; serum 3935,>
same,ABSORBANCE,[2]; serum 4477*,>
same,ABSORBANCE,[2]; serum 4489,>
same,ABSORBANCE,[2]; serum 5149,>
same,ABSORBANCE,[2]; serum 5270,>
same,ABSORBANCE,[2]; serum 5931,>
same,ABSORBANCE,[2]; serum 6165,>
same,ABSORBANCE,[2]; serum 6198,>
same,ABSORBANCE,[2]; serum 6627,>
same,ABSORBANCE,[2]; serum 6697,>
same,ABSORBANCE,[2]; serum 6891,>
same,ABSORBANCE,[2]; serum 6976,>
same,ABSORBANCE,[2]; serum 6998,>
same,ABSORBANCE,[2]; serum 7258,>
same,ABSORBANCE,[2]; serum 7443,>
"RLLALETFIEENELLNLWGCKNRAICYTSVKWNKT (cysteine pairing not given here) [VAU 35 AA, reference compound]",Number of samples,[1]; CLASS A (a: OD<0.100),11
same,Number of samples,[1]; CLASS B (b: 0.100<OD<0.500),3
same,Number of samples,[1]; CLASS C (c: 0.500<OD<1.000),0
same,Number of samples,[1]; CLASS D (d: OD>1.000),0
same,ABSORBANCE (OD),[1]; serum 258 OUDI at 1/100,0.058
same,ABSORBANCE (OD),[1]; serum 625 at 1/50,0.069
same,ABSORBANCE (OD),[1]; serum 3600 at 1/100,0.025
same,ABSORBANCE (OD),[1]; serum 3613 at ¼00,0.250
same,ABSORBANCE (OD),[1]; serum 3653 at 1/10,0.021
same,ABSORBANCE (OD),[1]; serum 4280 at 1/50,0.013
same,ABSORBANCE (OD),[1]; serum 6111 at 1/100,0.087
same,ABSORBANCE (OD),[1]; serum DJOU at 1/100,0.022
same,ABSORBANCE (OD),[1]; serum DO15 at 1/100,0.036
same,ABSORBANCE (OD),[1]; serum MBASSI at 1/100,0.120
same,ABSORBANCE (OD),[1]; serum Maryland at ¼00,0.054
same,ABSORBANCE (OD),[1]; serum NGO at 1/50,0.055
same,ABSORBANCE (OD),[1]; serum NJEM at 1/100,0.159
same,ABSORBANCE (OD),[1]; serum WANG at 1/50,0.025
